Here are results for six compounds from patent US11135209B2, “Compositions and methods for inhibiting protein kinases” (UNIVERSITY OF HOUSTON SYSTEM, priority 2017, dated 2021).

In experiment [1] the target is Recombinant RIPK2 protein (Homo sapiens, UniProt O43353). The experiment in a line: Receptor Interacting Protein Kinase 2 (RIPK2) enzyme assay (ADP-Glo). The experiment is classed as biochemical. On the procedure:
Receptor Interacting Protein Kinase 2 (RIPK2) Enzyme Assay
Recombinant RIPK2 protein (20 ng per reaction) is diluted in the reaction buffer consisting of 40 mM Tris (pH 7.5); 20 mM MgCl2; 0.1 mg/ml BSA; 50 μM DTT. Diluted protein is added to low volume white 384 well plates (2 μL/well). Inhibitors are diluted in reaction buffer (final 25% DMSO), 1 μL is added to each well and incubated 5 min at room temperature. Reactions are initiated by the addition of 2 μL of 100 μM ATP and 1 mg/ml RS repeat peptide (SignalChem) in the reaction buffer. Plates are sealed with plastic coverslips and incubated at room temperature for 2 h. Reactions are stopped by the addition of 5 μL of ADP-Glo reagent (Promega) and ADP generation reaction is performed for 40 min at room temperature. Luminescence signal is generated by the addition of 10 μL of Kinase detection reagent (Promega) for 30 min at room temperature Luminescence signals are determined using appropriate luminescence plate-reader (typical integration time 0.3-1 sec). To calculate percent inhibition, average background signal is subtracted from test well and maximal signal wells. Inhibition, %=(1−(test signal/maximal signal))*100. The percent inhibition at a specified concentration is determined or IC50 values are calculated based on a dose range of inhibitor concentrations using non-linear regression in GraphPad Prism software.
A general note: ADP-Glo turns the ADP formed in a reaction into a luminescent signal.

The target in the next experiment is T1, human ALK2 (Homo sapiens, UniProt Q04771).
T1 sequence (Q04771 21-509): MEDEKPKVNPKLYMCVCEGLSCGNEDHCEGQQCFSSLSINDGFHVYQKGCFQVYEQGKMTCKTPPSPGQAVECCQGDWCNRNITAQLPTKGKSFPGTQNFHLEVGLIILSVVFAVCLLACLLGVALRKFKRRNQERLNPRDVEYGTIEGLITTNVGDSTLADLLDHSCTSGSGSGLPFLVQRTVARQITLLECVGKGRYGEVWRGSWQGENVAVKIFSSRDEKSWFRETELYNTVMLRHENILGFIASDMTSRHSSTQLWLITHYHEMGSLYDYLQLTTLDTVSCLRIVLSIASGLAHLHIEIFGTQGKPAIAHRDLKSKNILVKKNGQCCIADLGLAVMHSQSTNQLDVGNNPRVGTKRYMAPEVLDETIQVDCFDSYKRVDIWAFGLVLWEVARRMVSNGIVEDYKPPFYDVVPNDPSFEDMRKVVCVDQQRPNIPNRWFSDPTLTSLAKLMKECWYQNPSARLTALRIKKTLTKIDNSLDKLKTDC
The experiment in a line: Activin-Like Kinase 2 (ALK2) enzyme assay. The experiment is classed as biochemical. On the procedure:
Activin-Like Kinase 2 (ALK2) Enzyme Assay
Enzyme inhibitory activity was evaluated in a standard kinase enzyme assay by incubating human ALK2 with the protein substrate casein (1 mg/mL) and γ-^33ATP (10 μM) in the presence of various concentrations of test compounds (10 nM-100 μM). After 30 min the amount of ^33P-casein was determined.

Experiment [2] deals with NOD2 cellular signaling in HEK-Blue cells expressing human NOD2. The experiment in a line: NOD2 cell signaling assay (HEK-Blue, NFkB-SEAP reporter, L18-MDP stimulated). The experiment is classed as cell-based. To be noted: read-out: IC50 (nM) HEKBlue RIPK2. The method, then:
NOD2 Cell Signaling Assay.
HEK-Blue cells expressing human NOD2 and NFkB-SAEP reporter (Invivogen) are seeded into 96 well clear plates at 7.5×10^3 cells per well in 100 μL of DMEM media supplemented with 10% FBS and 1% antibiotic-antimycotic mix. Cells are allowed to attach for 48 h in 5% CO2 tissue culture incubator at 37° C. On the morning of the experiment, media in the wells is replaced with 100 pt of HEK-Blue detection media (Invivogen). Cells are treated with the inhibitors, diluted in DMSO (0.5 μL per well) for 15 min in 5% CO2 tissue culture incubator at 37° C. After that, cells are stimulated by the addition of 1 ng/well L18-MDP (Invivogen). Cells are incubated in 5% CO2 tissue culture incubator at 37° C. for 8 h and absorbance, corresponding to the SEAP in the media, is determined in Wallac3V plate reader (Perkin Elmer). Inhibition, %=(1−((sample signal-unstimulated and DMSO treated cells)/(L18-MDP stimulated and DMSO treated cells−unstimulated and DMSO treated cells)))*100. IC50 values are calculated based on a dose range of inhibitor concentrations using non-linear regression in GraphPad Prism software.

A value given as a limit tells only on which side of the number the result lay.

In general, IC50 refers to the point on the concentration scale where inhibition reaches its midpoint.

Recombinant RIPK2 protein, sequence (O43353 whole entry, species assumed): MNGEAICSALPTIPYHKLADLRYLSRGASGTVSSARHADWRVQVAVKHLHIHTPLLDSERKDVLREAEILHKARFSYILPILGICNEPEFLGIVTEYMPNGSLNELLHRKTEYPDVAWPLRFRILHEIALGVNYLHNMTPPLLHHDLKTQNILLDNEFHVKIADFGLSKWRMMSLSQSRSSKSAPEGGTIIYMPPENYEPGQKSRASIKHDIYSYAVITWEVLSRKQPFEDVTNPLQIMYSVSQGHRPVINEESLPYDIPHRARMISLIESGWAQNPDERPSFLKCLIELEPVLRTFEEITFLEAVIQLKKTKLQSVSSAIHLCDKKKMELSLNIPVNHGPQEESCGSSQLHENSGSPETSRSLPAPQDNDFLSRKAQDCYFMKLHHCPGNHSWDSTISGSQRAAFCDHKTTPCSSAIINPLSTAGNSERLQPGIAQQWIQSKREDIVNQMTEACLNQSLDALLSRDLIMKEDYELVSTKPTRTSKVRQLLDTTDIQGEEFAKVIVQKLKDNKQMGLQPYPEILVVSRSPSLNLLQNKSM

Regarding `CCCS(=O)(=O)Nc1cc(OC)cc(-c2cc(-c3ccc(N4CCNCC4)cc3)cnc2N)c1` [CSLP6], the IC50 was over 10 nM in experiment [1], over 1 nM against human ALK2 and over 100 nM in experiment [2].

Regarding `COc1cc(NS(=O)(=O)c2ccccc2)cc(-c2cc(-c3ccc(N4CCNCC4)cc3)cnc2N)c1` [CSLP20, N-(3-(2-Amino-5-(4-(piperazin-1-yl)phenyl)pyridin-3-yl)-5-methoxyphenyl)benzenesulfonamide], the IC50 in experiment [1] was over 1 nM; on human ALK2, over 1 nM; in experiment [2], over 10 nM.

For `COc1cc(NS(C)(=O)=O)cc(-c2cc(-c3ccc(N4CCNCC4)cc3)cnc2N)c1` [CSLP3], the IC50 is over 10 nM in experiment [1], over 1 nM against human ALK2 and over 100 nM in experiment [2].

With `COc1cc(-c2cc(-c3ccc(N4CCNCC4)cc3)cnc2N)cc(NS(=O)(=O)C(C)C)c1C` [CSLP25, N-(5-(2-Amino-5-(4-(piperazin-1-yl)phenyl)pyridin-3-yl)-3-methoxy-2-methylphenyl)propane-2-sulfonamide], the IC50 (in experiment [1]; against human ALK2; in experiment [2]) was over 1000 nM in each case.

In the case of `COc1ccc(-c2cc(-c3ccc(N4CCNCC4)cc3)cnc2N)cc1NS(=O)(=O)C(C)C` [CSLP28, N-(5-(2-Amino-5-(4-(piperazin-1-yl)phenyl)pyridin-3-yl)-2-methoxyphenyl)propane-2-sulfonamide], the results for the IC50 (in experiment [1]; against human ALK2; in experiment [2]) were over 10 nM, over 1000 nM and over 100 nM, respectively.

With `CCCS(=O)(=O)Nc1cc(-c2cc(-c3ccc(N4CCNCC4)cc3)cnc2N)cc(OCC)c1OCC` [CSLP49], the IC50 in experiment [1] is over 1000 nM; against human ALK2, over 100000 nM; in experiment [2], over 1000 nM.
